Laboratory results taken from publication PMC10650131 (International Journal of Molecular Sciences, 2023).
Values joined by “and” are separate entries in the source; they are usually repeats but may differ in a detail not shown here. Equal entries are not always repeated. “Also recorded” adds a separate entry of the source. Where two headings read alike, the source gives them in different places.

Columns and labels:
MAO-A = test system: MAO-A; design: method as in earlier work; details: ref 49 (Park et al. 2020); cited from earlier work
hMAO-A = target: T1, hMAO-A (Homo sapiens, UniProt P21397); experiment: In vitro hMAO-A inhibition and enzyme kinetics, chemiluminescent MAO-Glo assay; format: biochemical; details: recombinant hMAO-A; mean ± SD of triplicate experiments
T1 construct: purchased Sigma-Aldrich
T1 sequence (P21397 1-527): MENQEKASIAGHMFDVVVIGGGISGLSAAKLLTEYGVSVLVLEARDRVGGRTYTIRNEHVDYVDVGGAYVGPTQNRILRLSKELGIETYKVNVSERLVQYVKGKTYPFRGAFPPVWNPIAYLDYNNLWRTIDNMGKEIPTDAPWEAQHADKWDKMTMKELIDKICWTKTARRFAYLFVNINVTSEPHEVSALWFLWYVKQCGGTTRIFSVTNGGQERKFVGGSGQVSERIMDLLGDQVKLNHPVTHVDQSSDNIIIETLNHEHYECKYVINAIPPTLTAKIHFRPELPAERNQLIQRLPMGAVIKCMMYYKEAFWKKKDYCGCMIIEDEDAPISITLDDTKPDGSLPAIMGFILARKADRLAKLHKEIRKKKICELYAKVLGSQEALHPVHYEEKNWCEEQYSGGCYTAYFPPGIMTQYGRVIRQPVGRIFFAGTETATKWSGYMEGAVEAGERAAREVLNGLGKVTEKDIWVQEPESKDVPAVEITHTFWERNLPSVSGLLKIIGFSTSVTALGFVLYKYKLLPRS
Method: (§1) A chemiluminescent assay was performed in a white, opaque 96-well plate using the MAO-Glo kit (Promega, Madison, WI, USA) to evaluate human monoamine oxidase (hMAO) inhibitory potential. Detailed experimental conditions and procedures were reported previously. The test compounds were evaluated at different concentrations to obtain an IC50 value. The percent of inhibition (%) was obtained with the following equation: % Inhibition = (Ac − As)/Ac × 100, where Ac is the absorbance of the control and As is the absorbance of the sample. For hMAO-A, clorgyline was used as a positive control.
(§2) Kinetic parameters were analyzed using SigmaPlot (v12.0, SPP Inc., Chicago, IL, USA).

hMAO-B = target: T2, hMAO-B (Homo sapiens, UniProt P27338); experiment: In vitro hMAO-B inhibition and enzyme kinetics, chemiluminescent MAO-Glo assay; format: biochemical; details: for SI (selective index): ratio of hMAO-A IC50/hMAO-B IC50; for IC50: recombinant hMAO-B, mean ± SD of triplicate experiments
T2 construct: purchased Sigma-Aldrich
T2 sequence (P27338 1-520): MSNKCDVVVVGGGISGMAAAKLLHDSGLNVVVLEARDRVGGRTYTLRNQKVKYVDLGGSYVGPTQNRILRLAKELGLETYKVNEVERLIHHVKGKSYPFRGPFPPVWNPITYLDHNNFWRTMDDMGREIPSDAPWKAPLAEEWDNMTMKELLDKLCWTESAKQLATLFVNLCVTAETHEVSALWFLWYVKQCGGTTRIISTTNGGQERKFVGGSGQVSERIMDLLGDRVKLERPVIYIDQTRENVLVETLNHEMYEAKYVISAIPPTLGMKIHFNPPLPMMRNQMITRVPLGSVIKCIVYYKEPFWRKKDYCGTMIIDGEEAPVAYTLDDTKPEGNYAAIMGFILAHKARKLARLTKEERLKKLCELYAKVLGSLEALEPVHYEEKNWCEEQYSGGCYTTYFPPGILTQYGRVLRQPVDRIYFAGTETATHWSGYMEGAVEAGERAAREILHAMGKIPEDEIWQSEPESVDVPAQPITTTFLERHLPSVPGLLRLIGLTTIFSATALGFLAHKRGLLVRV
Method: as §1, §2

hD1R = hD1R (Homo sapiens, UniProt P21728); experiment: Cell-based functional GPCR assay, cAMP, CHO-D1R; details: for % Stimulation, hD1R: 100 μM compound, % of control agonist response (10 μM DA)
Method: (§3) Cell-based functional GPCR assays were conducted in CHO cells and Ba/F3 cells transfected with a plasmid containing the GPCR gene of interest. The functional activity of the test compounds (agonist or antagonist) was evaluated by measuring their effects on cAMP modulation or Ca^2+ ion mobilization, depending on the receptor type. All assays were performed at Eurofins Cerep (Le Bois I’Eveque, France) following their in-house protocol, as stated in our previous reports.
(§4) The functional activity of the test compounds on D1R, D3R, and D4R was assessed by evaluating the effect on cAMP modulation.

hD2LR = target: T3, hD2LR (Homo sapiens, UniProt P14416); experiment: Cell-based functional GPCR assay, Ca2+ mobilization, CHO-D2R; details: for % Stimulation, hD2LR: 100 μM compound, % of control agonist response (10 μM DA)
T3 construct: host or cells: CHO (CHO-D2R)
Method: as §3
(§5) The functional activity of the test compounds on D2R and 5HT1AR was tested by fluorimetrically evaluating their effect on cytosolic Ca^2+ ion mobilization. […] Then, a fluorescent probe (Fluo8, AAT Bioquest, Sunnyvale, CA, USA) mixed with probenecid in HBSS (Invitrogen, Carlsbad, CA, USA) supplemented with […] (Invitrogen) (pH 7.4) was added to each well, and the cells were allowed to equilibrate for 60 min at 37 °C. […] We then measured the fluorescent intensity, which varied in proportion to the free cytosolic Ca^2+ ion concentration.

hD3R = hD3R (Homo sapiens, UniProt P35462); experiment: Cell-based functional GPCR assay, cAMP, CHO-D3R
Method: as §3, §4

hD4.4R = target: T4, hD4.4R (Homo sapiens, UniProt P21917); experiment: Cell-based functional GPCR assay, cAMP, CHO-D4R; details: for % Stimulation, hD4.4R: 100 μM compound, % of control agonist response (300 nM DA)
T4 sequence (P21917 1-419): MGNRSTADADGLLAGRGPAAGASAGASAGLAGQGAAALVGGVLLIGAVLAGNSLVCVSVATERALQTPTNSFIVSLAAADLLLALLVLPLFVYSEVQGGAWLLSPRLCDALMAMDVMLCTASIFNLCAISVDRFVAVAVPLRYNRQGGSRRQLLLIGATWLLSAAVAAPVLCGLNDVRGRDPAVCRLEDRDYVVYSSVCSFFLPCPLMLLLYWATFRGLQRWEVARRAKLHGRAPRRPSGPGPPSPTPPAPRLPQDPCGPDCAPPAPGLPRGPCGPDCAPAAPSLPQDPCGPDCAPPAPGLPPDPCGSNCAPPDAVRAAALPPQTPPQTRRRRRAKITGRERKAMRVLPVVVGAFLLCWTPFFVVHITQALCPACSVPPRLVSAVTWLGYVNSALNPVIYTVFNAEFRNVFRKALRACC
Method: as §3, §4

h5HT1AR = target: T5, h5HT1AR (Homo sapiens, UniProt P08908); experiment: Cell-based functional GPCR assay, Ca2+ mobilization, Ba/F3-5HT1AR; details: for % Stimulation, h5HT1AR: 100 μM compound, % of control agonist response (2.5 μM serotonin)
T5 construct: host or cells: Ba/F3 (Ba/F3-5HT1AR)
T5 sequence (P08908 1-422): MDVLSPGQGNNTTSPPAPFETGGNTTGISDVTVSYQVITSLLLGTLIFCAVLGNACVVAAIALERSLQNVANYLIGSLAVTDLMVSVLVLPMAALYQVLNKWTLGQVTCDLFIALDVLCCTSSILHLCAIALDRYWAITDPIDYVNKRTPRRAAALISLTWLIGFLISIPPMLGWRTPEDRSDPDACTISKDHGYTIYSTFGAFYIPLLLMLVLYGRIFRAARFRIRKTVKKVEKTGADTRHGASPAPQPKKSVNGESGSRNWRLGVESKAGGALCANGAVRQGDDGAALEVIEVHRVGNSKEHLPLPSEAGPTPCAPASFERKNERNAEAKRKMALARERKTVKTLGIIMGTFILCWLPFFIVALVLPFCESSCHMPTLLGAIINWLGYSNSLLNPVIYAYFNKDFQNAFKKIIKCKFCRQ
Method: as §3, §5

male C57BL/6 mice = experiment: Forced swim test; format: in vivo, mouse
Method: Male C57BL/6 mice (22–26 g, 7 weeks) were purchased from Orient Bio Inc. (Seongnam-si, Korea), a branch of Charles River Laboratories (Seoul, Republic of Korea), and kept in the University Animal Care Unit for 1 week before the experiments. Five animals were housed per cage and allowed access to water and food ad libitum; the environment was maintained at a constant temperature (23 ± 1 °C) and humidity (60 ± 10%) under a 12 h light/dark cycle (the lights were on from 07:30 to 19:30 h). The treatment and maintenance of the animals were carried out according to the Animal Care and Use Guidelines of Dong-A University, Republic of Korea. All in vivo experiments were performed according to the protocols approved by the Institutional Animal Care and Use Committee of Dong-A University (approved protocol numbers: DIACUC-approved-17-20) and were per the National Institutes of Health guidelines. A forced swim test (FST) was performed in a transparent cylindrical glass cylinder with a diameter of 14 cm and a height of 25 cm filled with 20 cm of water (24 ± 2 °C). Mice were habituated to the experimental environment 1 h before the test. […] Mice were immersed in water and recorded with a video camera for a total of 6 min. Immobility time was analyzed for the last 4 min of the 6 min using a video-based Ethovision System (Noldus, Wageningen, The Netherlands).

[1] = design: method as in PMID 31173966; details: cited from earlier work

Sequence of hD1R (P21728 whole entry): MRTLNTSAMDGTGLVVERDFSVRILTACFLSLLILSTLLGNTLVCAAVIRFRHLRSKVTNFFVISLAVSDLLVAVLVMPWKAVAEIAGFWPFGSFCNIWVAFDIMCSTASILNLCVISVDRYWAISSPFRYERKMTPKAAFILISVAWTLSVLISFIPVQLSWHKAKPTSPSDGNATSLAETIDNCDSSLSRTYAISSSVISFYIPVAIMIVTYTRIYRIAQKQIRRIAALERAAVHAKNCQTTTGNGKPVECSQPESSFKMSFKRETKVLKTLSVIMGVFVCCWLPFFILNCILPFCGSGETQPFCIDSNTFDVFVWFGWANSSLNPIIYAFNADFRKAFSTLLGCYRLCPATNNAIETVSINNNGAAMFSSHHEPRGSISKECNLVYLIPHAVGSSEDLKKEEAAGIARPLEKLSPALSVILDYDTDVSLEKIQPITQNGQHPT
T3 sequence (P14416 whole entry): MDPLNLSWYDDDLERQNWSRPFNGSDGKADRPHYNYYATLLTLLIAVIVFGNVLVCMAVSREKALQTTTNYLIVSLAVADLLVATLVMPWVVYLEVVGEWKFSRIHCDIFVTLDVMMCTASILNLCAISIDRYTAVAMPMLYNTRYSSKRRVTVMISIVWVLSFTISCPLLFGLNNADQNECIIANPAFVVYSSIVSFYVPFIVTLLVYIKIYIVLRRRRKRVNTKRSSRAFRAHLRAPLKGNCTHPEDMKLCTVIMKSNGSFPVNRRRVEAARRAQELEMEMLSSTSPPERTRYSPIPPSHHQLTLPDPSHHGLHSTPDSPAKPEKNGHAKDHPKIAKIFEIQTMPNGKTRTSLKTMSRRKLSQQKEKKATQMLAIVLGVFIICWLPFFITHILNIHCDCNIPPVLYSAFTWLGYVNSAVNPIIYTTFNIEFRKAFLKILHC
Sequence of hD3R (P35462 whole entry): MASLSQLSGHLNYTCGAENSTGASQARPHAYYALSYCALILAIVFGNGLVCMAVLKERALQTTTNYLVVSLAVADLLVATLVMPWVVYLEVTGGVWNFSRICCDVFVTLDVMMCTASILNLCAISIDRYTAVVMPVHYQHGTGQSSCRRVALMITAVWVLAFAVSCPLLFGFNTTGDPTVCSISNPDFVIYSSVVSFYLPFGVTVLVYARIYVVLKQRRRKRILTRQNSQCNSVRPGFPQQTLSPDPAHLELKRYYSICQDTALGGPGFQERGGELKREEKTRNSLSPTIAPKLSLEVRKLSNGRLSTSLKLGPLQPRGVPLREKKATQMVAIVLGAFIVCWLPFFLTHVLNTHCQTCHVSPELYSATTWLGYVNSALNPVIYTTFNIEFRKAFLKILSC

Row | IC50 (hMAO-A) [µM] | SI (selective index) (hMAO-B) | IC50 (hMAO-B) | inhibition at 100 µM (hD1R) [%] | % Stimulation, hD1R (hD1R) [%] | inhibition at 100 µM (hD2LR) [%] | % Stimulation, hD2LR (hD2LR) [%] | inhibition at 100 µM (hD3R) [%] | inhibition at 100 µM (hD4.4R) [%] | % Stimulation, hD4.4R (hD4.4R) [%] | inhibition at 100 µM (h5HT1AR) [%] | % Stimulation, h5HT1AR (h5HT1AR) [%] | Structure (SMILES) | also measured
1 |  |  |  |  |  |  |  |  |  |  |  |  | O=c1cc(-c2ccc(O)c(O)c2)oc2cc(O)cc(O)c12 [luteolin, 3′,4′,5,7-tetrahydroxyflavone] | IC50 (MAO-A): 8.57 ± 0.47 µM
2 | 177 ± 7.8 | 2.48 | ~70 µM and 71.2 µM | 22.2 | −3.1 ± 5.66 | -25.8 | −18.35 ± 0.78 | -8 | -11.2 | 35.8 ± 10.59 | 7.3 | −1.1 ± 0.42 | O=c1c(-c2ccc(O)c(O)c2)coc2cc(O)ccc12 [Compound 2, 3′,4′,7-trihydroxyisoflavone] | 
3 |  |  | > 150 µM | 0.7 | 6.95 ± 14.07 | -40 | −22.45 ± 2.05 | -0.97 | 134 | 10.33 ± 7.46 | 18.1 | −2.9 ± 0.28 | O=c1cc(-c2ccc(O)c(O)c2)oc2cc(O)ccc12 [Compound 1, 3′,4′,7-trihydroxyflavone] | % Stimulation, hD3R (hD3R; 100 μM compound, % of control agonist response (300 nM DA)): 38.5 ± 5.94%; inhibition at 12.5 µM (hD4.4R; 12.5 µM compound, read-out: % inhibition of the response of the control agonist, hD4.4R): 40.9%; inhibition at 25 µM (hD4.4R; 25 µM compound, read-out: % inhibition of the response of the control agonist, hD4.4R): 57.6%; inhibition at 50 µM (hD4.4R; 50 µM compound, read-out: % inhibition of the response of the control agonist, hD4.4R): 69%; IC50 (hD4.4R; read-out: IC50, antagonist effect at hD4.4R): 22.5 ± 2.18 µM; Immobility time in forced swimming test (male C57BL/6 mice; 3, 10, and 30 mg/kg p.o., 1 h before FST): did not reduce the immobility time; also recorded: none of those doses alleviated the immobility time; also recorded: did not show an antidepressant effect
4 |  |  |  |  |  |  |  |  |  |  |  |  | CNCCCN1c2ccccc2CCc2ccccc21 [desipramine, reference compound] | Immobility time in forced swimming test (male C57BL/6 mice; 15 mg/kg dose p.o., positive control): significant reduction in immobility time
5 | 114 ± 3.39 | 15.82 | 7.19 ± 0.32 µM | 47.8 | 5.65 ± 11.53 | -18.6 | −13.8 ± 0.28 | -7.97 | -27.3 | 33.63 ± 12.10 | 16.8 | 2.5 ± 0.42 | COc1ccc(-c2coc3cc(O)ccc3c2=O)cc1O [Compound 3, calycosin] | Ki (hMAO-B; Lineweaver–Burk plot and its secondary plots, read-out: Inhibition constants (Ki) hMAO-B): 2.56 µM; Inhibition mode, hMAO-B (hMAO-B; secondary plot of slopes (Kmapp/Vmaxapp) versus concentrations of inhibitor): Competitive
6 |  |  |  |  |  |  |  |  |  |  |  |  | C=C(C)[C@@H]1CCC(C)=C[C@H]1c1c(O)cc(CCCCC)cc1O [cannabidiol] | Effect on depressive symptoms ([1]; 10 mg/kg i.v. weekly for four weeks): significantly improve depressive symptoms; Effect on depressive symptoms ([1]; 10 mg/kg p.o.): no significant effects; Effect on depressive symptoms ([1]; 100 mg/kg p.o. weekly for four weeks): significantly improve depressive symptoms
